Patent publication US9062071B2, “Substituted piperidines as HDM2 inhibitors” (Merck Sharp & Dohme Corp, priority 2011, dated 2015)

Molecular target: HDM2 protein (Homo sapiens, UniProt Q00987)
Assay: fluorescence polarization screening assay (FP IC50)
Assay type: binding
Details: class symbols
Method: The compounds were evaluated to determine activity at the HDM2 protein by known methods such as the fluorescence polarization screening assay that measures the inhibitory concentration that achieves 50% of maximal activity (FP IC50) and the dissociation constant for inhibitor binding (FP Ki). [Zhang et al., J. Analytical Biochemistry 331: 138-146 (2004)].

Sequence of HDM2 protein (Q00987 whole entry): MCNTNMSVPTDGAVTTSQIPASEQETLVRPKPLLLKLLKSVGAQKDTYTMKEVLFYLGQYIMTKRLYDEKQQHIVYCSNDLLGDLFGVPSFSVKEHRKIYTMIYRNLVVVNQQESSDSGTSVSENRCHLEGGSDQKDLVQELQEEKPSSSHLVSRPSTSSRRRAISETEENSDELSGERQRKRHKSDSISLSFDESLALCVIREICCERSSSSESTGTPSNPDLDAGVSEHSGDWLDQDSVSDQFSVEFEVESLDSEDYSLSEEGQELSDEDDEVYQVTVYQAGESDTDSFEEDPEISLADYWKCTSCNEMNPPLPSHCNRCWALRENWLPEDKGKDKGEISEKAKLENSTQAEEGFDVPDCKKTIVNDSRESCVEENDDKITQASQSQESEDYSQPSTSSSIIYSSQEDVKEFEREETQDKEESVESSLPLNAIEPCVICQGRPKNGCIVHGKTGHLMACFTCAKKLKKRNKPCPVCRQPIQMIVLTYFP

Q: Which IC50 does the source give for `CCC[C@H]1N(C(=O)c2ncccc2C(F)(F)F)CCC[C@@]1(Oc1csc(C(F)(F)F)c1)C(=O)N1CCc2cc(Cl)ccc2C1CC(C)(C)C(=O)NS(C)(=O)=O` (single isomer, unassigned) [Compound A68] here?
A: Its IC50 is 1 to 100 nM.

Q: For `CCC[C@H]1N(C(=O)c2ncccc2C(F)(F)F)CCC[C@@]1(Oc1csc(C(F)(F)F)c1)C(=O)N1CCc2cc(Cl)ccc2C1CC(C)(C)C(=O)NS(C)(=O)=O` (single isomer, unassigned) [Compound A69], which IC50 is on record?
A: The IC50 was 1 to 100 nM.

Q: Which IC50 does the source give for `CCC[C@H]1N(C(=O)c2ncccc2C(F)(F)F)CCC[C@@]1(Oc1csc(C(F)(F)F)c1)C(=O)N1Cc2cc(F)ccc2CC1C(=O)O` (stereo in doubt) [Compound A126, (3S)-7-fluoro-2-{[(2R,3S)-2-propyl-1-{[3-(trifluoromethyl)pyridin-2-yl]carbonyl}-3-{[5-(trifluoromethyl)thiophen-3-yl]oxy}piperidin-3-yl]carbonyl}-1,2,3,4-tetrahydroisoquinoline-3-carboxylic acid] here?
A: The IC50 was 1 to 100 nM.

Q: For `COCCN(CCOC)CC[C@H]1N(C(=O)c2cnccc2C(F)(F)F)CCC[C@@]1(Oc1csc(C(F)(F)F)c1)C(=O)N1CCc2cc(Cl)ccc2C1` [Compound A2, 2-[(2R,3S)-3-[(6-chloro-3,4-dihydroisoquinblin-2(1H)-yl)carbonyl]-1-{[4-(trifluoromethyl)byridin-3-yl]carbonyl}-3-{[5-(trifluoromethyl)thiophen-3-yl]oxy}piperidin-2-yl]-N,N-bis(2-methoxyethyl)ethanamine], which IC50 is on record?
A: The IC50 was 1 to 100 nM.

Q: With `O=C(c1cnccc1C(F)(F)F)N1CCC[C@@](Oc2csc(C(F)(F)F)c2)(C(=O)N2CCc3ccc(Cl)cc3C2)[C@H]1CCN1CCOCC1` [Compound A3, 7-chloro-2-{[(2R,3S)-2-(2-morpholin-4-ylethyl)-1-{[4-(trifluoromethyl)pyridin-3-yl]carbonyl}-3-{[5-(trifluoromethyl)thiophen-3-yl]oxy}piperidin-3-yl]carbonyl}-1,2,3,4-tetrahydroisoquinoline] as the molecule, how does the IC50 read?
A: Its IC50 is 101 to 20000 nM.

Q: For `O=C(c1cnccc1C(F)(F)F)N1CCC[C@@](Oc2csc(C(F)(F)F)c2)(C(=O)N2CCc3cc(Cl)ccc3C2)[C@H]1CCN1CCOCC1` [Compound A4, 6-chloro-2-{[(2R,3S)-2-(2-morpholin-4-ylethyl)-1-{[4-(trifluoromethyl)pyridin-3-yl]carbonyl}-3-{[5-(trifluoromethyl)thiophen-3-yl]oxy}piperidin-3-yl]carbonyl}-1,2,3,4-tetrahydroisoquinoline], which IC50 is on record?
A: Its IC50 is 1 to 100 nM.

Q: Which IC50 does the source give for `CCC[C@H]1N(C(=O)c2ncccc2C(F)(F)F)CCC[C@@]1(Oc1csc(C(F)(F)F)c1)C(=O)N1CCc2ccc(C#N)cc2C1` [Compound A5, 2-{[(2R,3S)-2-propyl-1-{[3-(trifluoromethyl)pyridin-2-yl]carbonyl}-3-{[5-(trifluoromethyl)thiophen-3-yl]oxy}piperidin-3-yl]carbonyl}-1,2,3,4-tetrahydroisoquinoline-7-carbonitrile] here?
A: Its IC50 is 101 to 20000 nM.

Q: `CCC[C@H]1N(C(=O)c2ncccc2C(F)(F)F)CCC[C@@]1(Oc1csc(C(F)(F)F)c1)C(=O)N1CCc2ccc(C(N)=O)cc2C1` [Compound A6, 2-{[(2R,3S)-2-propyl-1-{[3-(trifluoromethyl)pyridin-2-yl]carbonyl}-3-{[5-(trifluoromethyl)thiophen-3-yl]oxy}piperidin-3-yl]carbonyl}-1,2,3,4-tetrahydroisoquinoline-7-carboxamide] was tested. Which IC50 did it give?
A: Its IC50 is 101 to 20000 nM.

Q: `O=C(c1ncccc1C(F)(F)F)N1CCC[C@@](Oc2csc(C(F)(F)F)c2)(C(=O)N2CCc3cc(F)ccc3C2)[C@H]1CCN1CCOCC1` [Compound A7, 6-fluoro-2-{[(2R,3S)-2-(2-morpholin-4-ylethyl)-1-{[3-(trifluoromethyl)pyridin-2-yl]carbonyl}-3-{[5-(trifluoromethyl)thiophen-3-yl]oxy}piperidin-3-yl]carbonyl}-1,2,3,4-tetrahydroisoquinoline] was tested. Which IC50 did it give?
A: Its IC50 is 1 to 100 nM.

Q: Which IC50 does the source give for `CCC[C@H]1N(C(=O)c2ncccc2C(F)(F)F)CCC[C@@]1(Oc1csc(C(F)(F)F)c1)C(=O)N1CCc2sccc2C1` [Compound A8, 5-{[(2R,3S)-2-propyl-1-{[3-(trifluoromethyl)pyridin-2-yl]carbonyl}-3-{[5-(trifluoromethyl)thiophen-3-yl]oxy}piperidin-3-yl]carbonyl}-4,5,6,7-tetrahydrothieno[3,2-c]pyridine] here?
A: The IC50 was 101 to 20000 nM.

Q: How did the IC50 turn out when `CCC[C@H]1N(C(=O)c2ncccc2C(F)(F)F)CCC[C@@]1(Oc1csc(C(F)(F)F)c1)C(=O)N1CCc2sc(C(=O)OCC)cc2C1` [Compound A9, ethyl 5-{[(2R,3S)-2-propyl-1-{[3-(trifluoromethyl)pyridin-2-yl]carbonyl}-3-{[5-(trifluoromethyl)thiophen-3-yl]oxy}piperidin-3-yl]carbonyl}-4,5,6,7-tetrahydrothieno[3,2-c]pyridine-2-carboxylate] was run?
A: Its IC50 is 101 to 20000 nM.

Q: `CCC[C@H]1N(C(=O)c2ncccc2C(F)(F)F)CCC[C@@]1(Oc1csc(C(F)(F)F)c1)C(=O)N1CCc2sc(C(=O)O)cc2C1` [Compound A10, 5-{[(2R,3S)-2-propyl-1-{[3-(trifluoromethyl)pyridin-2-yl]carbonyl}-3-{[5-(trifluoromethyl)thiophen-3-yl]oxy}piperidin-3-yl]carbonyl}-4,5,6,7-tetrahydrothieno[3,2-c]pyridine-2-carboxylic acid] was tested. Which IC50 did it give?
A: The IC50 was 101 to 20000 nM.

Q: How did the IC50 turn out when `CCC[C@H]1N(C(=O)c2ncccc2C(F)(F)F)CCC[C@@]1(Oc1csc(C(F)(F)F)c1)C(=O)N1CCc2cc(N)ccc2C1` [Compound A11, 2-{[(2R,3S)-2-propyl-1-{[3-(trifluoromethyl)pyridin-2-yl]carbonyl}-3-{[5-(trifluoromethyl)thiophen-3-yl]oxy}piperidin-3-yl]carbonyl}-1,2,3,4-tetrahydroisoquinolin-6-amine] was run?
A: Its IC50 is 101 to 20000 nM.

Q: For `CCC[C@H]1N(C(=O)c2ncccc2C(F)(F)F)CCC[C@@]1(Oc1csc(C(F)(F)F)c1)C(=O)N1CCc2cc(Cl)ccc2C1CN1CCOCC1` (stereo partly drawn) [Compound A12, 6-chloro-1-(morpholin-4-ylmethyl)-2-{[(2R,3S)-2-propyl-1-{[3-(trifluoromethyl)pyridin-2-yl]carbonyl}-3-{[5-(trifluoromethyl)thiophen-3-yl]oxy}piperidin-3-yl]carbonyl}-1,2,3,4-tetrahydroisoquinoline], which IC50 is on record?
A: The IC50 was 1 to 100 nM.

Q: `CCC[C@H]1N(C(=O)c2ncccc2C(F)(F)F)CCC[C@@]1(Oc1csc(C(F)(F)F)c1)C(=O)N1CCc2sc(Cl)cc2C1C(=O)O` (stereo partly drawn) [Compound A13, 2-chloro-5-{[(2R,3S)-2-propyl-1-{[3-(trifluoromethyl)pyridin-2-yl]carbonyl}-3-{[5-(trifluoromethyl)thiophen-3-yl]oxy}piperidin-3-yl]carbonyl}-4,5,6,7-tetrahydrothieno[3,2-c]pyridine-4-carboxylic acid] was tested. Which IC50 did it give?
A: The IC50 was 1 to 100 nM.

Same assay, conditions: numeric value

Q: With `COCCN(CCOC)CC[C@H]1N(C(=O)c2cnccc2C(F)(F)F)CCC[C@@]1(Oc1csc(C(F)(F)F)c1)C(=O)N1CCc2ccc(Cl)cc2C1` [Compound A1, 2-[(2R,3S)-3-[(7-chloro-3,4-dihydroisoquinblin-2(1H)-yl)carbonyl]-1-{[4-(trifluoromethyl)byridin-3-yl]carbonyl}-3-{[5-(trifluoromethyl)thiophen-3-yl]oxy}piperidin-2-yl]-N,N-bis(2-methoxyethyl)ethanamine] as the molecule, how does the IC50 read?
A: Its IC50 is 472000 nM.
